In patent US3980707A, “Methylamino derivative of 2-ethylindandione-1,3 and the hydrochloride thereof” (priority 1973, dated 1976):
Counter-ions that a name gives are not always drawn.

Legend:
[1] = Solubility and hydrolysis in water; format: physicochemical; details: hydrochlorides
[2] = Anticonvulsive activity and toxicity, general statements; format: in vivo; details: compared with the conventional anticonvulsants
[3] = system: seizures induced by an electroshock; experiment: Anticonvulsive effect in electroshock (intraperitoneal); format: in vivo, white rats and white mice
Description: Anticonvulsive effect of Metindione in electroshock was studied on white rats and white mice on a comparison basis with the well known drug phenobarbital. Both preparations were administered by intraperitoneal injections. The results are summarized in Tabl. 1 (confidence limits are indicated in parentheses; P = 0.05).

[4] = Acute toxicity (LD50, Table 1); set-up: species or system white rats and white mice; details: in vivo, ip; confidence limits in parentheses, P = 0.05; second ED50 column of Table 1
electroshock = experiment: Thirty-day electroshock tests (habituation); format: in vivo; details: white mice
conditioned reflexes = experiment: Influence on rate of development of conditioned reflexes (learning); format: in vivo, white mice; details: for ET50 (medium time required for learning): confidence limits in parentheses, P=0.05
Description: The influence of Metindione and Phenobarbital on learning has been studied on white mice.
(confidence limits are put in parentheses; P=0.05).

[5] = Extended every day administration / chronic toxicity; format: in vivo

CCC1(Nc2ccccc2)C(=O)c2ccccc2C1=O [2-aniline-2-ethylindandione-1,3 hydrochloride]
hydrolysis in water [1]: readily hydrolyzed in water

CCC1(NC)C(=O)c2ccccc2C1=O [2-methylamino-2-ethylindandione-1,3 hydrochloride]
anticonvulsant index [2]: high anticonvulsant index

CCC1(NC)C(=O)c2ccccc2C1=O [Metindione, 2-methylamino-2-ethylindandione-1,3 hydrochloride]
ED50 ([3]; Rattus norvegicus, ip, electroshock, confidence limits in parentheses, P = 0.05): 3.6 mg/kg
Protective Index (in ratio of LD50 /ED50) ([3]; electroshock, i.p., confidence limits in parentheses, P = 0.05): 115 (89+149)
protective index higher than that of phenobarbital ([3]; in vivo): 14 times
anticonvulsive effect stronger than that of phenobarbital ([3]; seizures induced by an electroshock, relative to phenobarbital): ~4 times
LD50 [4]: 415 mg/kg
necessity to increase initial dose / habit forming reaction (electroshock): no necessity to increase the initial dose
ET50 (medium time required for learning) (conditioned reflexes; dose 1/2 of ED50 of anticonv. action): 2.4(2.1+2.6) day
ET50 (medium time required for learning) (conditioned reflexes; dose 1 x ED50 of anticonv. action): 2.5(2.1+2.8) day
ET50 (medium time required for learning) (conditioned reflexes; dose 2 x ED50 of anticonv. action): 2.0(1.7+2.3) day
ET50 (medium time required for learning) (conditioned reflexes; dose 4 x ED50 of anticonv. action): 2.8(2.4+3.4) day
influence on rate of developing conditioned reflexes (conditioned reflexes; mouse, in vivo): did not influence the rate of developing conditioned reflexes
toxic effect ([5]; extended every day administration, doses 15 times higher than the therapeutical average): no toxic effect
acute and chronic toxicity ([5]; in vivo): low acute and a low chronic toxicity
morphological internal organic changes ([5]; in vivo): does not cause any morphological internal organic changes
influence on normal development and growth of young animals ([5]; young animals): no adverse influence on normal development and growth of young animals
